Data from patent US7135548B2, “Modified α-MSH peptides and derivatives thereof” (Zengen, Inc., priority 2002, dated 2006).
Entries after “also recorded” stand apart in the source; their conditions may differ. Square brackets hold non-standard residues; d marks the D form. Ends that are not written are not given here. dNal = D-naphthylalanine (D-Nal)

Columns and labels:
Candida albicans [1] = experiment: Inhibition of Candida albicans colony formation (viability estimated from colonies formed); type: cell-based; conditions: for antimicrobial activity toward Candida albicans (result in words): Table 1 / FIG. 1; for % Inhib. (inhibitory effect on Candida Albicans): clinical isolates, 1×10^6/ml in HBSS, two hours at 37° C. with peptide, colonies counted after 48 hours, peptide concentration for the table not given (range tested 10^−15 to 10^−4 M)
Method: Clinical isolates of C. albicans were also obtained from the collection of the Department of Microbiology, Ospedale Maggiore di Milano. Cultures of C. albicans were maintained on Sabouraud's agar slants and periodically transferred to Sabouraud's agar plates and incubated for 48 hours at 28° C. To prepare stationary growth-phase yeast, a colony may be taken from the agar plate, transferred into 30 ml of Sabouraud-dextrose broth, and incubated for 72 hours at 32° C. Cells were centrifuged at 1000×g for ten minutes, and the pellet may be washed twice with distilled water. Cells were counted and suspended in Hank's balanced salt solution (“HBSS”) to the desired concentration. Viability, determined by exclusion of 0.01% methylene blue, remained greater than 98%.
At 1×10^6/ml in HBSS, these fungi were incubated in the presence or absence of modified α-MSH peptides at concentrations ranging from 10^−15 to 10^−4 M for two hours at 37° C. Cells were then washed in cold distilled water and diluted with HBSS to a concentration of 100 organisms/ml. One-milliliter aliquots were then dispensed on blood agar plates and incubated for 48 hours at 37° C. The organism's viability may be estimated from the number of colonies formed.

Candida albicans [2] = conditions: comparison value, see U.S. patent application Ser. No. 09/535,066; cited from earlier work

| Substance | antimicrobial activity toward Candida albicans (result in words) (Candida albicans [1]) | % Inhib. (inhibitory effect on Candida Albicans) (Candida albicans [1]) [%] | inhibition of C. albicans colonies by naturally occurring α-MSH (Candida albicans [2]) |
| --- | --- | --- | --- |
| His-DNal-Arg-Trp-Gly-Lys-Asp-Val (H[dNal]RWGKDV-OH) [SEQ. ID. NO. 41] | decreased activity | 16.8 |  |
| His-Phe-Arg-Trp-Gly-Lys-DAla-Val (HFRWGK[dA]V-OH; N-terminus assumed; SMILES CC(C)[C@H](NC(=O)[C@@H](C)NC(=O)[C@H](CCCCN)NC(=O)CNC(=O)[C@H](Cc1c[nH]c2ccccc12)NC(=O)[C@H](CCCNC(=N)N)NC(=O)[C@H](Cc1ccccc1)NC(=O)[C@@H](N)Cc1c[nH]cn1)C(=O)O) [SEQ. ID. NO. 25] |  | 43.7 |  |
| HFRWGKSV [SEQ. ID. NO. 30] | No substantial modification in activity | 32.3 |  |
| His-DPhe-Arg-Trp-Gly-Lys-Phe-Val (H[dF]RWGKFV-OH; N-terminus assumed; SMILES CC(C)[C@H](NC(=O)[C@H](Cc1ccccc1)NC(=O)[C@H](CCCCN)NC(=O)CNC(=O)[C@H](Cc1c[nH]c2ccccc12)NC(=O)[C@H](CCCNC(=N)N)NC(=O)[C@@H](Cc1ccccc1)NC(=O)[C@@H](N)Cc1c[nH]cn1)C(=O)O) [SEQ. ID. NO. 34] |  | 89.6 |  |
| His-DNal-Arg-Trp-Gly-Lys-Glu-Val (H[dNal]RWGKEV-OH) [SEQ. ID. NO. 43] | decreased activity | 32.3 |  |
| His-DNal-Arg-Trp-Gly-Lys-Ser-Val (H[dNal]RWGKSV-OH) [SEQ. ID. NO. 31] | No substantial modification in activity | 73.9 |  |
| HFRWGKGV [SEQ. ID. NO. 28] |  | 41.8 |  |
| His-DNal-Arg-Trp-Gly-Lys-Gly-Val (H[dNal]RWGKGV-OH) [SEQ. ID. NO. 29] |  | 36.2 |  |
| HFRWGKPL [SEQ. ID. NO. 24] |  | 86.6 |  |
| HFRWGKFV [SEQ. ID. NO. 32] |  | 90.0 |  |
| His-DNal-Arg-Trp-Gly-Lys-DAla-Val (H[dNal]RWGK[dA]V-OH) [SEQ. ID. NO. 27] |  | 69.2 |  |
| HFRWGKDV [SEQ. ID. NO. 38] |  | 5.9 |  |
| HFR[dW]GKPV [SEQ. ID. NO. 23] |  | 81.9 |  |
| His-Phe-Arg-Trp-Gly-Lys-DAsp-Val (HFRWGK[dD]V-OH; N-terminus assumed; SMILES CC(C)[C@H](NC(=O)[C@@H](CC(=O)O)NC(=O)[C@H](CCCCN)NC(=O)CNC(=O)[C@H](Cc1c[nH]c2ccccc12)NC(=O)[C@H](CCCNC(=N)N)NC(=O)[C@H](Cc1ccccc1)NC(=O)[C@@H](N)Cc1c[nH]cn1)C(=O)O) [SEQ. ID. NO. 39] |  | 15.7 |  |
| His-DNal-Arg-Trp-Gly-Lys-Phe-Val (H[dNal]RWGKFV-OH) [SEQ. ID. NO. 36] | potent antimicrobial activity; also recorded: remarkable anticandidacidal activity | 99.7 |  |
| HFRWGKKV [SEQ. ID. NO. 44] |  | 41.0 |  |
| HFRWGKPA [SEQ. ID. NO. 20] |  | 68.4 |  |
| HFRWGAPV [SEQ. ID. NO. 18] |  | 26.2 |  |
| HFRWGKAV [SEQ. ID. NO. 19] |  | 12.8 |  |
| His-Phe-Arg-Trp-Gly-Lys-DPhe-Val (HFRWGK[dF]V-OH; N-terminus assumed; SMILES CC(C)[C@H](NC(=O)[C@@H](Cc1ccccc1)NC(=O)[C@H](CCCCN)NC(=O)CNC(=O)[C@H](Cc1c[nH]c2ccccc12)NC(=O)[C@H](CCCNC(=N)N)NC(=O)[C@H](Cc1ccccc1)NC(=O)[C@@H](N)Cc1c[nH]cn1)C(=O)O) [SEQ. ID. NO. 33] |  | 97.5 |  |
| His-Phe-Arg-Trp-Gly-Lys-Pro-DVal (HFRWGKP[dV]-OH; N-terminus assumed; SMILES CC(C)[C@@H](NC(=O)[C@@H]1CCCN1C(=O)[C@H](CCCCN)NC(=O)CNC(=O)[C@H](Cc1c[nH]c2ccccc12)NC(=O)[C@H](CCCNC(=N)N)NC(=O)[C@H](Cc1ccccc1)NC(=O)[C@@H](N)Cc1c[nH]cn1)C(=O)O) [SEQ. ID. NO. 17] |  | 82.5 |  |
| H[dF]RWGK[dF]V [SEQ. ID. NO. 35] |  | 82.0 |  |
| His-DNal-Arg-Trp-Gly-Lys-Lys-Val (H[dNal]RWGKKV-OH) [SEQ. ID. NO. 45] |  | 85.4 |  |
| SYSMEHFRWGKPV [α-MSH, naturally occurring 13-amino acid peptide, α-melanocyte-stimulating hormone] |  |  | less than 80% |
| His-DNal-Arg-Trp-Gly-Lys-Pro-Val (H[dNal]RWGKPV-OH) [SEQ. ID. NO. 22] | increased activity | 95.3 |  |
| His-DNal-Arg-Trp-Gly-Lys-DPhe-Val (H[dNal]RWGK[dF]V-OH) [SEQ. ID. NO. 37] | potent antimicrobial activity | 57.6 |  |
| HFRWGKEV [SEQ. ID. NO. 42] |  | 11.2 |  |
| His-DPhe-Arg-Trp-Gly-Lys-Asp-Val (H[dF]RWGKDV-OH; N-terminus assumed; SMILES CC(C)[C@H](NC(=O)[C@H](CC(=O)O)NC(=O)[C@H](CCCCN)NC(=O)CNC(=O)[C@H](Cc1c[nH]c2ccccc12)NC(=O)[C@H](CCCNC(=N)N)NC(=O)[C@@H](Cc1ccccc1)NC(=O)[C@@H](N)Cc1c[nH]cn1)C(=O)O) [SEQ. ID. NO. 40] |  | 3.7 |  |
| His-DPhe-Arg-Trp-Gly-Lys-Pro-Val (H[dF]RWGKPV-OH; N-terminus assumed; SMILES CC(C)[C@H](NC(=O)[C@@H]1CCCN1C(=O)[C@H](CCCCN)NC(=O)CNC(=O)[C@H](Cc1c[nH]c2ccccc12)NC(=O)[C@H](CCCNC(=N)N)NC(=O)[C@@H](Cc1ccccc1)NC(=O)[C@@H](N)Cc1c[nH]cn1)C(=O)O) [SEQ. ID. NO. 21] |  | 79.4 |  |
| His-DNal-Arg-Trp-Gly-Lys-Ala-Val (H[dNal]RWGKAV-OH) [SEQ. ID. NO. 26] |  | 28.0 |  |
